Assay: xn = mol fraction of the nth substance listed
Settings: 101 kPa, Liquid, Vibrating tube method

NC=O [formamide] + O
mass density [kg/m3]
Settings | 288.15 K | 298.15 K | 308.15 K | 323.15 K | 333.15 K
x1 = 0.00244 | – | 997.942 | 994.873 | 988.848 | 983.879
x1 = 0.00515 | – | 998.905 | 995.763 | 989.627 | 984.704
x1 = 0.0086 | – | 1000.14 | 996.897 | 990.671 | 985.696
x1 = 0.02032 | – | 1004.2 | 1000.68 | 994.128 | 988.955
x1 = 0.03478 | – | 1009 | 1005.15 | 998.15 | 992.755
x1 = 0.04976 | – | 1013.73 | 1009.5 | 1002.11 | 996.5
x1 = 0.06674 | – | 1018.77 | 1014.31 | 1006.45 | 1000.6
x1 = 0.08229 | – | 1023.18 | 1018.42 | 1010.31 | 1004.2
x1 = 0.1171 | – | 1032.35 | 1027.15 | 1018.36 | 1011.84
x1 = 0.1745 | – | 1045.52 | 1039.6 | 1030.08 | 1023.19
x1 = 0.2169 | – | 1053.94 | 1047.65 | 1037.62 | 1030.56
x1 = 0.2557 | – | 1060.92 | 1054.32 | 1043.94 | 1036.75
x1 = 0.3026 | – | 1068.56 | 1061.67 | 1050.89 | 1043.42
x1 = 0.351 | – | 1075.56 | 1068.41 | 1057.31 | 1049.67
x1 = 0.4027 | – | 1082.34 | 1074.96 | 1063.57 | 1055.76
x1 = 0.4487 | – | 1087.78 | 1080.22 | 1068.62 | 1060.68
x1 = 0.4886 | – | 1092.05 | 1084.37 | 1072.62 | 1064.58
x1 = 0.5601 | – | 1099.14 | 1091.28 | 1079.26 | 1071.15
x1 = 0.5916 | – | 1102.04 | 1094.1 | 1081.99 | 1073.78
x1 = 0.6674 | – | 1108.34 | 1100.24 | 1087.95 | 1079.63
x1 = 0.7066 | – | 1111.34 | 1103.2 | 1090.81 | 1082.46
x1 = 0.7495 | 1122.53 | 1114.37 | 1106.15 | 1093.69 | 1085.28
x1 = 0.7931 | 1125.6 | 1117.37 | 1109.09 | 1096.56 | 1088.11
x1 = 0.8601 | 1129.96 | 1121.65 | 1113.29 | 1100.66 | 1092.16
x1 = 0.8996 | 1132.4 | 1124.05 | 1115.65 | 1102.97 | 1094.46
x1 = 0.948 | 1135.23 | 1126.82 | 1118.38 | 1105.65 | 1097.1
x1 = 0.9753 | 1136.78 | 1128.35 | 1119.88 | 1107.13 | 1098.56
x1 = 0.9847 | 1137.31 | 1128.87 | 1120.39 | 1107.62 | 1099.05
x1 = 0.9897 | 1137.59 | 1129.15 | 1120.66 | 1107.9 | 1099.33
x1 = 0.9959 | 1137.94 | 1129.5 | 1121.01 | 1108.24 | 1099.68
x1 = 1 | 1138.17 | 1129.73 | 1121.22 | 1108.46 | 1099.88

— the NIST ThermoML archive (doi:10.1021/acs.jced.6b00786)
